Laboratory results as given in PMC4281142, “Fomiroid A, a Novel Compound from the Mushroom Fomitopsis nigra, Inhibits NPC1L1-Mediated Cholesterol Uptake via a Mode of Action Distinct from That of Ezetimibe” (PLoS ONE, 2014).

Legend:
NPC1L1 (rNPC1L1) [1] = target: T1, NPC1L1 (rNPC1L1) (Rattus norvegicus, UniProt Q6T3U3); test: competitive radioligand binding, [3H]ezetimibe glucuronide, HEK293/rNPC1L1 membranes
T1 construct: rat NPC1L1 (GenBank AY437867), membranes from stably expressing HEK293 cells

NPC1L1 (rNPC1L1) [2] = target: T1, NPC1L1 (rNPC1L1); test: competitive radioligand binding, [3H]ezetimibe glucuronide, HEK293/rNPC1L1 membranes (two-site fit; low-affinity site […])

Row | Compound | IC50 (NPC1L1 (rNPC1L1) [1]) | IC50 (NPC1L1 (rNPC1L1) [2])
1 | O=C1[C@H](CC[C@H](O)c2ccc(F)cc2)[C@@H](c2ccc(O)cc2)N1c1ccc(F)cc1 [ezetimibe] | 332 ± 4.2 nM | –
2 | CC(C)=CCCC(CO)C1CC(O)C2(C)C3=C(CCC12C)C1(C)CCC(=O)C(C)(C)C1CC3 (centres unmarked) [fomiroid A, 15, 21-dihydroxylanosta-8, 24-dien-3-one] | – | 4830 ± 200 nM
